From patent US20200217837A1, “CHROMATIN PROTECTIVE THERAPEUTICS AND CHROMATIN HETEROGENEITY” (Northwestern University, priority 2016, published 2020) come the findings set out here.

As usually defined, the % Inhibition is the relative decrease from the control value, in per cent.

Assay [1] has as its system A2780.m248. The assay can be described thus: Cell survival by surface coverage (% inhibition / cell death). It counts as cell-based. On the procedure:
These compounds were tested in combination with the chemotherapy drug paclitaxel.

In assay [2] the test system is A2780 cells. In words: LC-PWS microscopy quantification of chromatin heterogeneity. Format: cell-based. The settings on record: 5 nM for 24 hours.
Assay [3] concerns cancer cell lines. In words: Live cell PWS of chromatin folding/heterogeneity (D, Σ). Format: cell-based. The settings on record: five cell line models (A2780, M248, MDA-MB-231, MES-SA, MX2). On the procedure: Test compounds were screened for CPT activity using live cell PWS imaging. Control and 30-60 minute CPT-treated cells were imaged with live cell PWS to determine their effect on nuclear nanoscale heterogeneity (See FIG. 11A for exemplary tested compounds). […]

Assay [4] deals with MDA-MB-231. The assay can be described thus: Cell survival by surface coverage (% inhibition). The settings on record: Breast MDA-MB-231.
For assay [5], the system named is A2780. In words: Cell survival by surface coverage (% inhibition / cell death). The settings on record: Ovarian A2780; after 48 hours, surface coverage relative to control.

Regarding `CC(=O)O[C@H]1C(=O)[C@@]2(C)[C@H]([C@H](OC(=O)c3ccccc3)[C@]3(O)C[C@H](OC(=O)[C@H](O)[C@@H](NC(=O)c4ccccc4)c4ccccc4)C(C)=C1C3(C)C)[C@]1(OC(C)=O)CO[C@@H]1C[C@@H]2O` [Paclitaxel], the “Surface coverage relative to control (% survival)” value in assay [1] (A2780.m248) came out at 43%. The “% Inhibition” value turned out to be 57% in assay [1] (Ovarian A2780.m248, after 48 hours, surface coverage relative to control); 50% in assay [4]; 21% in assay [5]. Also, in assay [2], the “chromatin heterogeneity after treatment” value is listed as “increase in chromatin heterogeneity”. In assay [3], the “structural alteration of chromatin folding” value is on record as “increases”.
